Laboratory results from publication PMC7822123, “A Chemosensory Protein Detects Antifeedant in Locust (Locusta migratoria)” (Insects, 2020).
Entries after “also recorded” stand apart in the source; their conditions may differ. Where two headings read alike, the source gives them in different places.

Columns and labels:
recombinant LmigCSPIII [1] = biological target: T1, recombinant LmigCSPIII (Locusta migratoria, UniProt Q3LB86); assay: Fluorescent competitive binding assay with 1-NPN as reporter; settings: for binding affinity to LmigCSPIII (in words): among 78 tested compounds
T1 sequence (Q3LB86 entry or part of it): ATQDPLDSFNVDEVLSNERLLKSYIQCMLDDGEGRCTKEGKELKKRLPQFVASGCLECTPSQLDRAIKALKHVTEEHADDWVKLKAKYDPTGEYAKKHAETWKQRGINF
Method: Compounds (Table 2) used in the binding assay were purchased from Sigma (St. Louis, MO, USA) and were of reagent grade. Ligand binding specificity was measured with a fluorescent assay on an FS-55 emission fluorescence spectrometer (Perkin-Elmer, Waltham, MA, USA), as previously described. […] The recombinant protein was dissolved in 50 mM Tris-Buffer (pH 7.4) and titrated with aliquots of 1 mM methanol solutions of the ligands to final concentrations of […]. The florescent probe 1-NPN was excited at 337 nm and emission spectra were recorded between 380 nm and 440 nm. We used Graphpad Prism 5 software (Graphpad Software, San Diego, CA, USA) to calculate dissociation constants and draw the binding curves.

recombinant LmigCSPIII [2] = biological target: T1, recombinant LmigCSPIII; assay: as above; settings: at a concentration of 10 µM
desert locust = test system: desert locust; parameters: method as in PMID 12770479; settings: 7 µg/g body weight; cited from earlier work
[3] = test system: Locusta migratoria fourth instar nymphs; assay: Dual-choice feeding assay with LmigCSPIII knockdown (dsRNA) and H2O-injected locusts; assay type: in vivo
Method: (§1) For the dual-choice experiment, the feeding deterrence index (FDI) was calculated using the formula: FDI = (C − T)/(C + T), where C and T indicated control and treated leaf consumption weights, respectively. For non-choice experiment, the FDI was calculated using the formula: FDI = (C − T)/C. A regression curve line against feeding deterrence index was created by Graphpad Prism 9 software (Graphpad Software, San Diego, CA, USA). The DC50 was defined as the concentration of AMCAL that halved the value of the feeding deterrence index.
Double-stranded RNA was synthesized using the T7 RiboMAX™Express RNAi System (Promega, Madison, WI, USA), according to the manufacturer’s protocol. Briefly, we designed degenerate primers with a T7 promoter (Table 1) at the 5′ end based on an alignment of multiple LmigCSPIII sequences. The PCR-amplified fragment was purified and used as a template in the transcription reactions. After removing the DNA template and single-stranded RNA using a nuclease, we quantified the newly synthesized dsRNA and adjusted its concentration to 2.5 µg/µL. Locusts were anaesthetized on ice for easier handling during the injection process. dsRNA (2 µL) or DEPC (Diethy Pyrocarbonate) treated water (2 µL, Sangon Biotech) was injected into the dorsal intrasegmental membrane between the third and fourth abdominal segments of newly-molted third or fourth instar locusts using a microsyringe (Narishige, Tokyo, Japan), similarly to previous experiments.
The treatments and calculation methods for detecting the effects of suppression of LmigCSPIII on locusts are similar to in the dual-choice experiment.
To determine the effects of RNAi of LmigCSPIII on its role in detecting AMCAL, we created mutants by injecting with dsRNA of LmigCSPIII into fourth instar nymphs within 2 days after molting. These locusts were then provided with the corn leaves treated with AMCAL or solvent 72 h after injection. The duration of the experiment was 2 h.

[4] = test system: Locusta migratoria nymphs; settings: third instar, 100 μg/cm^2, after 3 or 4 days, vs control, p < 0.001
[5] = test system: Locusta migratoria fourth instar nymphs; assay: Dual-choice feeding assay, feeding response with intact or excised antennae; assay type: in vivo
Method: For the role of antenna or mouthparts in the detection of AMCAL, a dual-choice experiment was performed. Newly molted fourth instar locusts of similar weights were anesthetized on ice for several minutes. Antennae were carefully removed with fine scissors, and then the locusts were fed with fresh corn leaves for 24 h. The locusts were then placed in feeding boxes, each of which contained two pieces of corn leaves of the same size of 4 × 3 cm, one treated with AMCAL in solvent, and the other one treated with solvent alone. The two pieces of corn leaves were placed about 12 cm apart. Feeding response (FR) was defined as follows: a leaf that was ingested, regardless of amount, was scored as 1, whereas no consumption was scored as 0. The experimental duration was about 1 h. When approximately 50% of the control foliage had been consumed, the experiment was terminated, and the feeding amount was determined as described above.

[6] = test system: Locusta migratoria fourth instar nymphs; assay: Feeding bioassay: amount consumed and feeding deterrence index; assay type: in vivo
Method: New emerged fourth instar locust nymphs were starved 2 h before being introduced into a transparent plastic box (14 cm diameter, 8 cm high). For the non-choice experiment, the locusts were then supplied with two pieces of corn leaf (3 × 5 cm) of the same weight. One piece of the leaf was treated with an acetone solution of α-amylcinnamaldehyde (AMCAL) after the acetone evaporated completely, and the control leaf was just treated with same amount of actone. The natural concentrations of AMCAL found in non-host plants is usually less than 0.1% in weight. According to this, acetone solutions of AMCAL at concentrations of […] were used to treat corn leaves with a final concentration of 100 μg/cm^2, 50 μg/cm^2, 10 μg/cm^2, or 1 μg/cm^2, respectively.
Food consumption (S) was determined by the fresh/dry weight method as follows: a fresh corn leaf was cut in half from the main vein and weighted separately; one half was dried at 100 °C for 2 h to calculate fresh/dry weight ratio, calculated as R [34]; the other half, whose fresh weight was S1, was reserved for the feeding experiment. After feeding duration, the residual consumed leaf was dried and weighed as above, and the dry weight was labelled as S2. Food consumption was calculated as: S = S1/R − S2.
as §1

[7] = criterion for being regarded as able to bind, Figure 4, read-out: IC50 (concentration of ligand that halved the initial fluorescence of 1-NPN)

Row | SMILES | IC50 (recombinant LmigCSPIII [1]) [µM] | IC50 (recombinant LmigCSPIII [1]; [7]) [µM] | further results
1 | CCC/C=C/C=O [trans-2-hexenal, trans-2-Hexenal] | < 20 | – | displacement of 1-NPN from LmigCSPIII (recombinant LmigCSPIII [2]): able to displace 1-NPN
2 | O=Cc1ccccc1 [Benzaldehyde] | < 20 | – | –
3 | CCCCOC(=O)c1ccccc1C(=O)OCCCC [Dibutyl phthalate] | < 20 | – | –
4 | C/C=C(\C)C(=O)O[C@H]1C[C@@H](OC(C)=O)[C@@]2(C(=O)OC)CO[C@H]3[C@@H](O)[C@@](C)([C@]45O[C@@]4(C)[C@H]4C[C@@H]5O[C@@H]5OC=C[C@@]54O)[C@H]4[C@]1(CO[C@]4(O)C(=O)OC)[C@@H]32 [azadirachtin] | – | – | physiological effects in the desert locust (desert locust): reduces fitness and fertility, and interferes with molting
5 | c1ccc(Nc2cccc3ccccc23)cc1 [1-NPN, N-phenyl-1-naphthylamine, reference compound] | – | – | Kd (recombinant LmigCSPIII [1]): 3.3 µM
6 | CCCCCCCCCCCCCCCCCO [Heptadecanol] | – | < 20 | –
7 | COc1ccccc1O [Guaicacol] | – | < 20 | –
8 | N#CCc1ccccc1 [Benzeneacetonitrile] | < 20 | – | –
9 | Nc1cccc2cc3ccccc3cc12 [1-aminoanthracene] | – | – | binding affinity to LmigCSPIII (in words) (recombinant LmigCSPIII [1]): strongest affinity
10 | Cc1cnc(C)cn1 [2,5-Dimetylpyrazine] | – | < 20 | –
11 | CCCCCCCC/C=C\CCCCCCCC(N)=O [oleamide, Oleamide] | < 20 | – | binding affinity to LmigCSPIII (in words) (recombinant LmigCSPIII [1]): quite high binding affinity
12 | CC(O)c1ccccc1 (racemic) [DL-sec-phenethyl alcohol] | – | < 20 | –
13 | CCCCCCCCCCCCCCCO [Pentadecanol] | – | < 20 | –
14 | CCCCCC(C)=O [2-heptanone] | – | < 20 | displacement of 1-NPN from LmigCSPIII (recombinant LmigCSPIII [2]): able to displace 1-NPN
15 | C=C(C)C(=O)OCCCCCCCCCCCC [Dodecyl 2-methylacrylate] | – | < 20 | –
16 | CCOC(=O)c1ccccc1C(=O)OCC [Diethyl phthalate] | < 20 | – | –
17 | OC1CCCCC1 [Cyclohexanol] | < 20 | – | –
18 | Oc1ccccc1 [Phenol] | < 20 | – | –
19 | CCCCCCCCCCCCCCCCO [Hexadecanol] | – | < 20 | –
20 | CC(C)CCO [3-Methyl-1-butanol] | – | < 20 | Kd (recombinant LmigCSPIII [1]; calculated from IC50 of 1-NPN displacement, read-out: dissociation constant (KD) of competitor): 6.02 ± 0.17 µM
21 | CCCCC/C(C=O)=C/c1ccccc1 [AMCAL, α-amylcinnamaldehyde] | – | < 20 | binding affinity to LmigCSPIII (in words) (recombinant LmigCSPIII [1]): strongest affinity; also recorded: highest affinity; feeding deterrence index (FDI) ([3]; 1 μg/cm^2, RNAi group): −2%; feeding deterrence index (FDI) ([3]; 10 μg/cm^2, control group (H2O-injected locusts)): 50%; feeding deterrence index (FDI) ([3]; 10 μg/cm^2, locusts injected with dsRNA of LmigCSPIII): 22%; feeding deterrence index (FDI) ([3]; 50 μg/cm^2, RNAi group): 69%; weight increase of nymphs [4]: significantly less than that of the control group; Feeding response (FR) to treated leaves ([5]; 50 μg/cm^2, antennae excised): 45%; Feeding response (FR) to treated leaves ([5]; 50 μg/cm^2, antennae intact): 47%; mean consumption of food containing the chemical ([6]; 1 μg/cm^2, p > 0.05, Dunnett test): slight and insignificant decrease; mean consumption of food containing the chemical ([6]; 10 μg/cm^2, p < 0.01, Dunnett test): Significant feeding inhibition; DC50 (concentration that halved the feeding deterrence index) ([6]; from regression curve of feeding deterrence index, Figure 5D): 12 μg/cm^2
